Data reported in US20140303092A1 (CHIMERIX, INC., priority 2011, published 2014).

Assay: Study HDP-CDV-201: safety and tolerability (adverse events, laboratory abnormalities, discontinuations)
Assay type: in vivo, human (adult allogeneic HSCT recipients)
Details: for Subjects with Hemoglobin <6.5 g/dL / Subjects with Hemoglobin <8-6.5 g/dL / Subjects with Hemoglobin <10-8 g/dL / Subjects with Hemoglobin <LLN-10 g/dL / Subjects with Neutrophils <0.5 GI/L / Subjects with Neutrophils <1.0-0.5 GI/L / Subjects with Neutrophils <1.5-1 GI/L / Subjects with Neutrophils <LLN-1.5 GI/L / Subjects with Platelets <25 GI/L / Subjects with Platelets <50-25 GI/L / Subjects with Platelets <75-50 GI/L / Subjects with Platelets <LLN-75 GI/L / Subjects with Serum Creatinine >1 × ULN-[…] ULN / Subjects with Serum Creatinine >3 × ULN-6 × ULN / Subjects with Serum Creatinine >6 × ULN / Subjects with Serum Creatinine >[…] ULN-3 × ULN / Subjects with WBC <1 GI/L / Subjects with WBC <2-1 GI/L / Subjects with WBC <3-2 GI/L / Subjects with WBC <LLN-3 GI/L: any time during therapy
Method: Clinical Studies of HDP-CDV were performed and described in detail in the following Examples. For example, HDP-CDV-201 is a placebo-controlled, dose-escalating trial in HSCT CMV (R+) recipients, evaluating the ability of HDP-CDV to prevent or control CMV infection was carried out. Five cohorts were established in which participants or subjects received either placebo or the HDP-CDV orally, in doses ranging from 40 mg weekly (QW) to 200 mg twice weekly (BIW). Subjects who were post-HSCT were enrolled at the time of engraftment and randomized to HDP-CDV or placebo (3 to 1 ratio) and received blinded therapy until approximately 100 day post-transplantation. HDP-CDV doses were 40 mg QW, 100 mg QW, 200 mg QW, 200 mg BIW and 100 mg BIW. Escalation to the next dose was decided by the data monitoring committee after review of the safety data from the previous Cohort. Subjects who developed CMV disease or CMV infection requiring pre-emptive therapy with local standard of care were discontinued from blinded therapy and followed for 4 weeks. Subjects who completed treatment with blinded therapy were followed for 8 weeks post-therapy.
Data from Study HDP-CDV-201 also provided characterization of the safety and tolerability profile of HDP-CDV when administered for the prevention or control of CMV infection in high risk (R^+) post-HSCT adult subjects.
The Safety population (SAFETY) included all randomized subjects who took at least one dose of study treatment. This population was used to summarize safety outcomes based on the treatment actually received, in cases where a subject was treated contrary to the randomization schedule.
The safety and tolerability profile of HDP-CDV, including subject demographics and Baseline characteristics; the AE profile; and laboratory abnormalities of interest were analyzed in the cohorts followed in this investigation.
Subjects completing the treatment period received a full course of study medication; those completing the entire study attended visits through 8 weeks of follow up. Subjects who discontinued treatment may have done so for protocol specified reasons (e.g. development of clinically significant CMV infection requiring preemptive treatment with excluded anti-CMV medications) or for other reasons (e.g., withdrawal, adverse events, loss to follow-up). The disposition of subjects in Study HDP-CDV-201 during the double-blind, placebo-controlled treatment period (through Week 11) is listed by dosing Cohort in TABLE 23.
Adverse events were examined by severity to ensure that all safety signals were identified in this study population. Because of the frequency of events in HSCT recipients, particular attention was given to evaluation of Grade 3 […], 4 (severe), and 5 (fatal) adverse events.
Only those preferred terms for which at least one Grade 3 or higher event was experienced in any treatment group are listed. Cytomegalovirus-related AEs are excluded from this analysis.
HDP-CDV is a lipid conjugate of CDV. Because CDV is known to have adverse effects on renal function and bone marrow, decreased GFR and persistent neutropenia were identified as AEs of special interest. Key renal and hematological (TABLE 30) laboratory parameters were measured and listed below by Study HDP-CDV-201 treatment groups. TABLE 30 includes abnormal levels of serum creatinine, neutrophils, platelets, WBCs, and hemoglobin and includes data at Screening and during the treatment period.
A common metric for unit based dosing of medications is by weight (mg/kg). When the distribution of weights was examined for all subjects participating in the study, the median was 78 kg and the lower 25th percentile weight was approximately 65 kg, which translates to a cut-off of ˜3 mg/kg for a 200 mg total weekly dose. Based upon this approach, a cut-off of 3 mg/kg was used to assess the frequency of diarrhea and associated GI AEs reported for the subjects in Cohorts 3 or 4a (TABLE 40).

[1] = Cohort 4A, 100 mg BIW, through Week 11

## CCCCCCCCCCCCCCCCOCCCOP(=O)(O)COC(CO)Cn1ccc(N)nc1=O (stereo not drawn) [HDP-CDV]
Cohort 4A, 100 mg BIW, N = 50
  TEAE Cytomegalovirus viremia: 6 (12.0%) n (%)
  TEAE Decreased appetite: 9 (18.0%) n (%)
  TEAE Diarrhoea: 26 (52.0%) n (%)
  TEAE Dysgeusia: 4 (8.0%) n (%)
  TEAE Fatigue: 9 (18.0%) n (%)
  TEAE GI Reflux Disease: 0 n (%)
  TEAE Gamma-glutamyltransferase increased: 4 (8.0%) n (%)
  TEAE Generalized oedema: 1 (2.0%) n (%)
  TEAE Hyperbilirubinaemia: 3 (6.0%) n (%)
  TEAE Hyperglycaemia: 9 (18.0%) n (%)
  TEAE Hyperkalemia: 3 (6.0%) n (%)
  TEAE Hypocalcaemia: 2 (4.0%) n (%)
  TEAE Hypokalaemia: 8 (16.0%) n (%)
  TEAE Hyponatraemia: 1 (2.0%) n (%)
  TEAE Increased leukocytosis: 2 (4.0%) n (%)
  TEAE Insomnia: 9 (18.0%) n (%)
  TEAE Liver function test abnormal: 2 (4.0%) n (%)
  TEAE Malnutrition: 1 (2.0%) n (%)
  TEAE Nausea: 17 (34.0%) n (%)
  TEAE Neutropenia: 10 (20.0%) n (%)
  TEAE Oedema peripheral: 8 (16.0%) n (%)
  TEAE Oral Candidiasis: 6 (12.0%) n (%)
  TEAE Pneumonia: 5 (10.0%) n (%)
  TEAE Pyrexia: 10 (20.0%) n (%)
  TEAE Recurrent flatulence: 3 (6.0%) n (%)
  TEAE Renal Failure: 5 (10.0%) n (%)
  TEAE Staphylococcal Bacteremia: 6 (12.0%) n (%)
  TEAE Thrombocytopenia: 7 (14.0%) n (%)
  TEAE Tremor: 1 (2.0%) n (%)
  TEAE Vomiting: 22 (44.0%) n (%)
  Vomiting leading to study drug withdrawal: 1 (2.0%)
Cohort 4A, 100 mg BIW, N = 50, entire study duration
  All AEs, Grade 5 (deaths): 5 (10.0%)
[1]
  Subjects completed treatment: 30 (60.0%) n (%)
  Subjects who permanently discontinued treatment: 20 (40.0%) n (%)
Cohort 4A, >3.0 mg/kg/wk
  Abnormal ALT >3-5x ULN, Any Time Between Week 2 and Week 10, subjects: 4 (40.0%)
  Abnormal ALT >3-5x ULN, Screening, subjects: 0
  Abnormal ALT >5-10x ULN, Any Time Between Week 2 and Week 10, subjects: 1 (10.0%)
  Abnormal ALT >5-10x ULN, Screening, subjects: 0
  Abnormal ALT >10-20x ULN, Any Time Between Week 2 and Week 10, subjects: 0
  Abnormal ALT >10-20x ULN, Screening, subjects: 0
  Abnormal ALT >20x ULN, Any Time Between Week 2 and Week 10, subjects: 1 (10.0%)
  Abnormal ALT >20x ULN, Screening, subjects: 0
Cohort 4A, ≦3.0 mg/kg/wk
  Abnormal ALT >3-5x ULN, Any Time Between Week 2 and Week 10, subjects: 6 (15.0%)
  Abnormal ALT >3-5x ULN, Screening, subjects: 1 (2.8%)
  Abnormal ALT >5-10x ULN, Any Time Between Week 2 and Week 10, subjects: 3 (7.5%)
  Abnormal ALT >5-10x ULN, Screening, subjects: 1 (2.8%)
  Abnormal ALT >10-20x ULN, Any Time Between Week 2 and Week 10, subjects: 1 (2.5%)
  Abnormal ALT >10-20x ULN, Screening, subjects: 1 (2.8%)
  Abnormal ALT >20x ULN, Any Time Between Week 2 and Week 10, subjects: 0
  Abnormal ALT >20x ULN, Screening, subjects: 0
Cohort 4a
  Grade of hepatobiliary AE cholecystitis, subject 4058: 3
  Grade of hepatobiliary AE hyperbilirubinemia, subject 4080: 1
  Grade of hepatobiliary AE hyperbilirubinemia, subject 4090: 2
  Grade of hepatobiliary AE worsening hyperbilirubinemia, subject 4109: 1
  Outcome of hepatobiliary AE cholecystitis, subject 4058: recovered/resolved
  Outcome of hepatobiliary AE hyperbilirubinemia, subject 4080: not recovered/not
  Outcome of hepatobiliary AE hyperbilirubinemia, subject 4090: recovered/resolved
  Outcome of hepatobiliary AE worsening hyperbilirubinemia, subject 4109: not recovered/not
  Relationship of hepatobiliary AE cholecystitis, subject 4058: not related
  Relationship of hepatobiliary AE hyperbilirubinemia, subject 4080: not related
  Relationship of hepatobiliary AE hyperbilirubinemia, subject 4090: possibly related
  Relationship of hepatobiliary AE worsening hyperbilirubinemia, subject 4109: not related
Cohort 4a (100 mg BIW)
  frequency of SAEs involving the gastrointestinal tract: 42%
Weeks 2 to 4 of dosing, doses of 200 mg per week or higher
  typical ALT increases relative to Baseline: 2-4 times Baseline
After introduction of the safety monitoring and management plan
  subjects who discontinued study drug because of GI AEs: ≤ 10%
Any dose
  Grade 3 or 4 increases in creatinine: no Grade 3 or 4 increases in creatinine
Any dose other than 200 mg BIW
  subjects who discontinued study drug due to GI AEs: less than 10%
40 mg QW
  Subjects with Hemoglobin <6.5 g/dL: 0
  Subjects with Hemoglobin <8-6.5 g/dL: 1 (4.3%)
  Subjects with Hemoglobin <10-8 g/dL: 11 (47.8%)
  Subjects with Hemoglobin <LLN-10 g/dL: 10 (43.5%)
  Subjects with Neutrophils <0.5 GI/L: 0
  Subjects with Neutrophils <1.0-0.5 GI/L: 2 (8.7%)
  Subjects with Neutrophils <1.5-1 GI/L: 5 (21.7%)
  Subjects with Neutrophils <LLN-1.5 GI/L: 4 (17.4%)
  Subjects with Platelets <25 GI/L: 4 (17.4%)
  Subjects with Platelets <50-25 GI/L: 9 (39.1%)
  Subjects with Platelets <75-50 GI/L: 4 (17.4%)
  Subjects with Platelets <LLN-75 GI/L: 6 (26.1%)
  Subjects with Serum Creatinine >1 × ULN-[…] ULN: 8 (34.8%)
  Subjects with Serum Creatinine >3 × ULN-6 × ULN: 0
  Subjects with Serum Creatinine >6 × ULN: 0
  Subjects with Serum Creatinine >[…] ULN-3 × ULN: 2 (8.7%)
  Subjects with WBC <1 GI/L: 0
  Subjects with WBC <2-1 GI/L: 5 (21.7%)
  Subjects with WBC <3-2 GI/L: 6 (26.1%)
  Subjects with WBC <LLN-3 GI/L: 5 (21.7%)
100 mg BIW
  Subjects with Hemoglobin <6.5 g/dL: 1 (2.0%)
  Subjects with Hemoglobin <8-6.5 g/dL: 4 (8.0%)
  Subjects with Hemoglobin <10-8 g/dL: 27 (54.0%)
  Subjects with Hemoglobin <LLN-10 g/dL: 17 (34.0%)
  Subjects with Neutrophils <0.5 GI/L: 3 (6.0%)
  Subjects with Neutrophils <1.0-0.5 GI/L: 10 (20.0%)
  Subjects with Neutrophils <1.5-1 GI/L: 10 (20.0%)
  Subjects with Neutrophils <LLN-1.5 GI/L: 5 (10.0%)
  Subjects with Platelets <25 GI/L: 6 (12.0%)
  Subjects with Platelets <50-25 GI/L: 7 (14.0%)
  Subjects with Platelets <75-50 GI/L: 10 (20.0%)
  Subjects with Platelets <LLN-75 GI/L: 21 (42.0%)
  Subjects with Serum Creatinine >1 × ULN-[…] ULN: 16 (32.0%)
  Subjects with Serum Creatinine >3 × ULN-6 × ULN: 0
  Subjects with Serum Creatinine >6 × ULN: 0
  Subjects with Serum Creatinine >[…] ULN-3 × ULN: 10 (20.0%)
  Subjects with WBC <1 GI/L: 4 (8.0%)
  Subjects with WBC <2-1 GI/L: 8 (16.0%)
  Subjects with WBC <3-2 GI/L: 12 (24.0%)
  Subjects with WBC <LLN-3 GI/L: 11 (22.0%)
100 mg QW
  Subjects with Hemoglobin <6.5 g/dL: 1 (3.7%)
  Subjects with Hemoglobin <8-6.5 g/dL: 1 (3.7%)
  Subjects with Hemoglobin <10-8 g/dL: 12 (44.4%)
  Subjects with Hemoglobin <LLN-10 g/dL: 12 (44.4%)
